Data reported in US20030144345A1, “Treatment of metabolic diseases with soraphen derivatives” (priority 2001, published 2003).

Tests used:
[1] = test system: HepG2 cells; test: Fatty acid (palmitate) oxidation assay with human liver hepatoma cells HepG2; assay type: cell-based; details: HepG2, 10 μM
Procedure: For routine passaging, HepG2 cells (American Type Culture Collection, ATCC) were grown in T75 flasks (Falcon, #353136) in 15 ml of Dulbecco's modified Eagle medium (DMEM, Sigma, #D5796), containing 10% heat inactivated fetal bovine serum (FBS, Summit Biotechnology, #S-100-05) and 1% Penicillin/Streptomycin (Sigma, #P4333). […] The cells were passaged once per week by trypsinization and an additional change of medium was done after 3 to 4 days after passaging.

[2] = test system: Wistar rats; test: In vivo oxidation of [U-14C]palmitate (exhaled 14CO2); parameters: species or system rat; details: 30 mg/kg s.c.
Procedure: Compound (Ia) was tested in normal Wistar rats by two different methods to assess in vivo a) direct effects on fatty acid oxidation by following the conversion of [^14C]-labeled palmitate to ^14CO2 exhaled by the animals and b) effects on total lipid utilization as determined by indirect calorimetry.
a) In vivo oxidation of [U-^14C]palmitate. Male Wistar rats (240-360 g) were given chow food ad libitum. The day before the experiment each animal was singly caged and food was withdrawn 2.5 hours before the experiment. The animals were given [U-^14C]palmitate (5 μCi) dissolved in 500 μl of olive oil by gavage and compound (Ia) (30 mg/kg) or saline (vehicle) by subcutaneous injection. Immediately after receiving [U-^14C]palmitate and compound (Ia) or vehicle, the animals were kept singly in a metabolic chamber during six hours. The chamber was set up to allow quantive recovery of ^14CO2 exhaled by the animals. The chamber consisted of a desiccator with an elevated platform for the rat, an inlet for air at the bottom wall of the vessel. The flow of the air-exchange was controlled by a flow meter connected to a vacuum pump and set to 50 litres/hour. The temperature inside the chamber was kept at 22° C. Exhaled ^14CO2 from the animals was absorbed by a flask containing 500 ml of Carbosorb E (Canberra Packard).

[3] = target: T1, human ACCβ enzyme (Homo sapiens, UniProt O00763); test: Human ACCβ enzyme activity / inhibition assay (radiometric); assay type: biochemical; details: for Effect on K0.5 of K-citrate / Effect on Vmax of the ACC enzyme reaction: titration of compound at 0.5, 1 and 2 times IC50
T1 construct: The cloning of the full length human muscle-type ACCβ cDNA and expression in HEK293 cells; made in house; host or cells: HEK293 cells (ATCC CRL-1573), plasmid pRF33D
Procedure: The cloning of the full length human muscle-type ACCβ cDNA and expression in HEK293 cells (ATCC, #CRL-1573) was performed as follows. The ACCβ cDNA was amplified by the polymerase chain reaction (PCR) and was cloned using standard recombinant DNA techniques. The PCR reaction was performed with the Expand Long Template PCR System (Roche Molecular Biochemicals, #1 681 8340) and 0.5 ng of cDNA from human skeletal muscle as template. The primers used for PCR amplification were designed on the basis of the published sequence of the human ACCβ cDNA isolated from a human liver cDNA library (Abul-Elheiga et al. J. Biol Chem. 272, 10669-10677, 1997). The sequence of the forward primer ACCB1 was 5′-[…]-3′; it includes a NheI restriction cleavage site for subcloning and a Kozak translation initiation consensus sequence preceding the ATG start codon. The sequence of the reverse primer ACCB8 was 5′-[…]-3′; it includes a stop codon and a XhoI restriction cleavage site for subcloning. The amplified DNA fragment of approximately 7.4 kb was cloned into a mammalian expression vector. The resulting plasmid isolates, pRF33A, B, C, D, and E were individually transfected in human embryonic kidney 293 cells (HEK293) using a standard lipid transfection method. Cell extracts of transfected cells were prepared in a lysis buffer containing 0.4 mg/ml digitonin and enzyme activity was determined using a radiometric ACC activity assay as described below. Plasmid pRF33D gave the highest activity and was chosen for large scale transfections of HEK293 cells and enzyme purification.
Since ACC enzyme activities in crude cell lysates were very low, enrichment of ACCβ enzyme expressed in HEK293 cells was achieved by a single anion exchange chromatography step. Cell lysates were run over a 5 ml Econo Pac High Q column (Bio-Rad, #732-0027). Bound proteins were eluted by a gradient of NaCl from 0 to 1 M in 50 mM Tris-HCl, pH 7.5, 1 mM DTT, 5% glycerol. Fractions containing high ACCβ enzyme activity were pooled and stored at −20° C.
Standard ACCβ enzyme assays, in a total volume of 100 μl, contained 50 mM HEPES-KOH, pH 7.5, 10 mM K-citrate, 10 mM MgSO4, 1 mM ATP, 0.1 mM DTT, 2% DMSO, 0.1 mg/ml fatty acid-free BSA, 0.2 mM acetyl-CoA, 2 mM KHCO3, 0.2 mM [^14C]NaHCO3 (50-60 mCi/mmol) and cell lysate or purified ACCβ enzyme. Reactions were incubated at 37° C. for 45 min. and stopped by the addition of 50 μl of 2 N HCl. Terminated reactions were incubated at 50° C. over night to evaporate non-incorporated [^14C]NaHCO3. [^14C]-labeled malonyl-CoA reaction product was quantitated by liquid scintillation counting after the addition of 20 μl of Microscint 20 (Canberra Packard, #6013621) on a TopCount NXT microplate scintillation counter (Canberra Packard).
Inhibition of ACCβ activity was determined at saturating substrate concentrations with two-fold serial dilutions of test compounds spanning a concentration range of at least two log units. IC50 values were calculated with the GraFit software (Erithacus Software Ltd.). Kinetic parameters (Km, Vmax and K0.5) were determined by varying one substrate (or allosteric effector) in a two-fold serial dilution over a concentration range of at least two log units while keeping all other substrates at constant saturating concentrations. Fitting to the Michaelis-Menten equation (for calculation of Km of substrates) and fitting to the Hill equation (for calculation of K0.5of the allosteric activator K-citrate) was done with the GraFit software. To determine the mode of action of Soraphens, determinations of Km for ATP and acetyl-CoA and of K0.5 for K-citrate were repeated in the absence and in the presence of the three different Soraphens at 0.5, 1 and 2 times their IC50 and the data were fitted to the equation for non-competitive inhibition with the GraFit software.

T1 sequence (O00763 whole entry): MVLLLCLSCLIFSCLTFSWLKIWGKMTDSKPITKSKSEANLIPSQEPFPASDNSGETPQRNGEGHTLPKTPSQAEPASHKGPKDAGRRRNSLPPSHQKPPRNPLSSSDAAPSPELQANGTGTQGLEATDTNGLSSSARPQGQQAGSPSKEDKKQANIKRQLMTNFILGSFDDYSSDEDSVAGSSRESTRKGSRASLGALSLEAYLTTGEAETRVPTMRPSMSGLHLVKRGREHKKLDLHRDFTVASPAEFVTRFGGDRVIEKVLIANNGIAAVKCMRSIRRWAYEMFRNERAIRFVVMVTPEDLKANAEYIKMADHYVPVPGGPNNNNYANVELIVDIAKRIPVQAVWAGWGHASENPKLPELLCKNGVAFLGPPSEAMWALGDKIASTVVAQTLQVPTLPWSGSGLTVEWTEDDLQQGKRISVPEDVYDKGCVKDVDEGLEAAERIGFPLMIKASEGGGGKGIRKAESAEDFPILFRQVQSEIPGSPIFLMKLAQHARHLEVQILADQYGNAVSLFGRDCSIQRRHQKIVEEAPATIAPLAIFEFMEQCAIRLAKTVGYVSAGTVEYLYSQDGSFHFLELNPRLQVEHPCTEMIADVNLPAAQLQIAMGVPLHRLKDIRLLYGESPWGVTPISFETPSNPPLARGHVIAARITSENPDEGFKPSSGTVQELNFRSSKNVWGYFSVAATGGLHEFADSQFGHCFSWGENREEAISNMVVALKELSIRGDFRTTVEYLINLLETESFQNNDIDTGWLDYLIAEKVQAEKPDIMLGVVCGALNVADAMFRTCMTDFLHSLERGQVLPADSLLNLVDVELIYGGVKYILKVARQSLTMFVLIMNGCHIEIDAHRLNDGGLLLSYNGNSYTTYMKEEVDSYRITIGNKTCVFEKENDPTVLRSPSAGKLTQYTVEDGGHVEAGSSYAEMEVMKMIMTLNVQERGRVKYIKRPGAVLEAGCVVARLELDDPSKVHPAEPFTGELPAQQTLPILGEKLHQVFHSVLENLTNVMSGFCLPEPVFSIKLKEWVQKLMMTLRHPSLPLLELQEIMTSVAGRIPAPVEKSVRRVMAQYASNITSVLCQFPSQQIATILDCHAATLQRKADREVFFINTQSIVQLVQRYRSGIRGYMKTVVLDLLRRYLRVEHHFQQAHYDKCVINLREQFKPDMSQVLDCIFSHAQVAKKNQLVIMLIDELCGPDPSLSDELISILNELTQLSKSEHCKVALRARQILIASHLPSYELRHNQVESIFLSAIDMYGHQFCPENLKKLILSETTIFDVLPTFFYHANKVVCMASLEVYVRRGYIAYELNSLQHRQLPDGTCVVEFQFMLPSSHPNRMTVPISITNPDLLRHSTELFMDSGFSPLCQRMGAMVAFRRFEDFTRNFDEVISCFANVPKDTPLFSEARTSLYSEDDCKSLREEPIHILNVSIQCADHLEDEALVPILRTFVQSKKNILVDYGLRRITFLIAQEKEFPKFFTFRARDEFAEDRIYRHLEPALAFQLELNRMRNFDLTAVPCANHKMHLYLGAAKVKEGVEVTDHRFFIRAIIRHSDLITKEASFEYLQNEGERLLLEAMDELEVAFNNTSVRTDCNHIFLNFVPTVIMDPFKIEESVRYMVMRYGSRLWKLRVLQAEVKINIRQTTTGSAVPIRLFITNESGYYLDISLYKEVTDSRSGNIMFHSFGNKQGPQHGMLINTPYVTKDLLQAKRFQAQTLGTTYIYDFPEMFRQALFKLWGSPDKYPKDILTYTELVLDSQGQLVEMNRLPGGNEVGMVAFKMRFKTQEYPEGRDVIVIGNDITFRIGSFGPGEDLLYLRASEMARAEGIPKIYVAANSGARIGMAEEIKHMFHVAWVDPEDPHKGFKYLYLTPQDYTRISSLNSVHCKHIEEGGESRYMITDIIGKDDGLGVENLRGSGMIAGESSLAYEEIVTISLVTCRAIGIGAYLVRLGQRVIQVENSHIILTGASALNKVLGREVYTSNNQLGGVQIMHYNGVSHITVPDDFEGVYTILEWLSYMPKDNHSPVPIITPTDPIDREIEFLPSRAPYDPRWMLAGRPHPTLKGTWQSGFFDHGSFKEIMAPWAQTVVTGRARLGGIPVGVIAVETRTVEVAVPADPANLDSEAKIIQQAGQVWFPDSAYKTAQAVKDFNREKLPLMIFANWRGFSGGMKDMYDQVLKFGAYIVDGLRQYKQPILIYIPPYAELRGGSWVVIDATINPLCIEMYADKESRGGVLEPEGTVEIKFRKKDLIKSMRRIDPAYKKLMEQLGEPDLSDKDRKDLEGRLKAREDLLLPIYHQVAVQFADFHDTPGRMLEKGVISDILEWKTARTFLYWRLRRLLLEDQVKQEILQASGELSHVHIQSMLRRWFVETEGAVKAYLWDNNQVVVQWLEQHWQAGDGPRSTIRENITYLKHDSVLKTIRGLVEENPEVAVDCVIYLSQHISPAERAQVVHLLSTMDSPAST

CO[C@H]1CCCC[C@@H](c2ccccc2)OC(=O)[C@@H](C)C2(O)O[C@H]([C@@H](C)[C@H](O)[C@H]2OC)[C@@H](C)/C=C/[C@H]1OC [Cpd (Ia), Soraphen A 1-α]
Fold stimulation over palmitate oxidation rate in the absence of test compounds [1]: 3.5 fold
Palmitate oxidation rate [1]: 13.7 +/− 0.7 pmol · h^−1 · well^−1
Duration of effect (entire assessment period) [2]: 6 h
Time after administration at which the effect is apparent [2]: approx. 60 min
% increase over vehicle ([2]; 5 min): −15%
Accumulated 14CO2 exhaled ([2]; 5 min): 133 +/− 41 cpm
% increase over vehicle ([2]; 15 min): −30%
Accumulated 14CO2 exhaled ([2]; 15 min): 121 +/− 36 cpm
% increase over vehicle ([2]; 30 min): 17%
Accumulated 14CO2 exhaled ([2]; 30 min): 211 +/− 32 cpm
% increase over vehicle ([2]; 60 min): 41%
Accumulated 14CO2 exhaled ([2]; 60 min): 544 +/− 102 cpm
% increase over vehicle ([2]; 90 min): 40%
Accumulated 14CO2 exhaled ([2]; 90 min): 1440 +/− 90 cpm
% increase over vehicle ([2]; 120 min): 56%
Accumulated 14CO2 exhaled ([2]; 120 min): 2614 +/− 136 cpm
% increase over vehicle ([2]; 150 min): 62%
Accumulated 14CO2 exhaled ([2]; 150 min): 4333 +/− 235 cpm
% increase over vehicle ([2]; 180 min): 51%
Accumulated 14CO2 exhaled ([2]; 180 min): 5729 +/− 397 cpm
% increase over vehicle ([2]; 240 min): 56%
Accumulated 14CO2 exhaled ([2]; 240 min): 9572 +/− 809 cpm
% increase over vehicle ([2]; 300 min): 77%
Accumulated 14CO2 exhaled ([2]; 300 min): 13261 +/− 1.445 cpm
% increase over vehicle ([2]; 360 min): 60%
Accumulated 14CO2 exhaled ([2]; 360 min): 16134 +/− 2.130 cpm
IC50 [3]: 3 nM
Effect on K0.5 of K-citrate [3]: did not change
Effect on Vmax of the ACC enzyme reaction [3]: dose-dependent decrease
Effect on K0.5 of K-citrate ([3]; listed as Soraphen A 1-α): little effect
Effect on Vmax of the ACC enzyme reaction ([3]; listed as Soraphen A 1-α): reduced
